# Test results taken from ChEMBL document CHEMBL3885861, “Open TG-GATES”.
# Species on record: Rattus norvegicus
# Assay: Open TG-GATES - Regimen: Single
# Type: toxicity, organism-based, Sprague-Dawley
# Parameters: regimen Single, gender Male, age 6 weeks
# Conditions: in vivo, po, route gavage; for APTT / Bas / Eos / Fbg / Hb / Ht / Lym / MCH / MCHC / MCV / Mono / Neu / Plat / RBC / Ret / WBC: tissue Blood; for KIDNEY_L / KIDNEY_R / KIDNEY_TOTAL: tissue Kidney; for LIVER: tissue Liver; for ALP / ALT / AST / CRE / DBIL / GLC / IP / K / LDH / Na / PL / RALB / TBIL / TC / TG / TP / gamma-GTP: tissue Plasma
# [1] = 100 mg/kg, 24 h, dose level Low
# [2] = 300 mg/kg, 3 h, dose level Middle
# [3] = 300 mg/kg, 6 h, dose level Middle
# [4] = 300 mg/kg, 9 h, dose level Middle
# [5] = 300 mg/kg, 24 h, dose level Middle
structure (smiles),measurement,setting,value
CN(C)CCC=C1c2ccccc2COc2ccccc21 [DOXEPIN],TERMINAL_BW,"100 mg/kg, 9 h, dose level Low",193.4 g
same,APTT,"100 mg/kg, 9 h, dose level Low",24.3 s
same,Bas,"100 mg/kg, 9 h, dose level Low",0%
same,Eos,"100 mg/kg, 9 h, dose level Low",0.8%
same,Fbg,"100 mg/kg, 9 h, dose level Low",284.4 mg/dL
same,Hb,"100 mg/kg, 9 h, dose level Low",13.5 g/dL
same,Ht,"100 mg/kg, 9 h, dose level Low",40.9%
same,Lym,"100 mg/kg, 9 h, dose level Low",80.4%
same,MCH,"100 mg/kg, 9 h, dose level Low",21.9 pg
same,MCHC,"100 mg/kg, 9 h, dose level Low",32.9%
same,MCV,"100 mg/kg, 9 h, dose level Low",66.5 fL
same,Mono,"100 mg/kg, 9 h, dose level Low",2.4%
same,Neu,"100 mg/kg, 9 h, dose level Low",16%
same,Plat,"100 mg/kg, 9 h, dose level Low",117.4 x10_4/uL
same,RBC,"100 mg/kg, 9 h, dose level Low",614.6 x10_4/ul
same,Ret,"100 mg/kg, 9 h, dose level Low",8.5%
same,WBC,"100 mg/kg, 9 h, dose level Low",81.6 x10_2/uL
same,KIDNEY_L,"100 mg/kg, 9 h, dose level Low",0.9 g
same,KIDNEY_R,"100 mg/kg, 9 h, dose level Low",0.9 g
same,KIDNEY_TOTAL,"100 mg/kg, 9 h, dose level Low",1.8 g
same,LIVER,"100 mg/kg, 9 h, dose level Low",7.7 g
same,ALP,"100 mg/kg, 9 h, dose level Low",1637.2 IU/L
same,ALT,"100 mg/kg, 9 h, dose level Low",33.8 IU/L
same,AST,"100 mg/kg, 9 h, dose level Low",69.4 IU/L
same,CRE,"100 mg/kg, 9 h, dose level Low",0.2 mg/dL
same,DBIL,"100 mg/kg, 9 h, dose level Low",0.002 mg/dL
same,GLC,"100 mg/kg, 9 h, dose level Low",167 mg/dL
same,IP,"100 mg/kg, 9 h, dose level Low",10.4 mg/dL
same,K,"100 mg/kg, 9 h, dose level Low",4 meq/L
same,LDH,"100 mg/kg, 9 h, dose level Low",99.6 IU/L
same,Na,"100 mg/kg, 9 h, dose level Low",144.8 meq/L
same,PL,"100 mg/kg, 9 h, dose level Low",135 mg/dL
same,RALB,"100 mg/kg, 9 h, dose level Low",2.5 g/dL
same,TBIL,"100 mg/kg, 9 h, dose level Low",0.062 mg/dL
same,TC,"100 mg/kg, 9 h, dose level Low",72.6 mg/dL
same,TG,"100 mg/kg, 9 h, dose level Low",26.6 mg/dL
same,TP,"100 mg/kg, 9 h, dose level Low",5.3 g/dL
same,gamma-GTP,"100 mg/kg, 9 h, dose level Low",1 IU/L
same,TERMINAL_BW,[1],208.9 g
same,APTT,[1],17.3 s
same,Bas,[1],0%
same,Eos,[1],0.8%
same,Fbg,[1],264.6 mg/dL
same,Hb,[1],14 g/dL
same,Ht,[1],41.3%
same,Lym,[1],78.2%
same,MCH,[1],21.9 pg
same,MCHC,[1],34%
same,MCV,[1],64.4 fL
same,Mono,[1],2.6%
same,Neu,[1],17.4%
same,Plat,[1],125.2 x10_4/uL
same,RBC,[1],641.6 x10_4/ul
same,Ret,[1],7.3%
same,WBC,[1],97.7 x10_2/uL
same,KIDNEY_L,[1],0.9 g
same,KIDNEY_R,[1],0.9 g
same,KIDNEY_TOTAL,[1],1.8 g
same,ALP,[1],2097.8 IU/L
same,ALT,[1],45 IU/L
same,AST,[1],75.8 IU/L
same,CRE,[1],0.2 mg/dL
same,DBIL,[1],0.006 mg/dL
same,GLC,[1],176.4 mg/dL
same,IP,[1],7.5 mg/dL
same,K,[1],4 meq/L
same,LDH,[1],112.6 IU/L
same,Na,[1],142 meq/L
same,PL,[1],155.8 mg/dL
same,RALB,[1],2.6 g/dL
same,TBIL,[1],0.04 mg/dL
same,TC,[1],80.4 mg/dL
same,TG,[1],101 mg/dL
same,TP,[1],5.6 g/dL
same,gamma-GTP,[1],1 IU/L
same,TERMINAL_BW,[2],198.6 g
same,APTT,[2],17.8 s
same,Bas,[2],0.2%
same,Eos,[2],0.4%
same,Fbg,[2],275.2 mg/dL
same,Hb,[2],12.9 g/dL
same,Ht,[2],40%
same,Lym,[2],73%
same,MCH,[2],21.7 pg
same,MCHC,[2],32.1%
same,MCV,[2],67.4 fL
same,Mono,[2],3.2%
same,Neu,[2],22.4%
same,Plat,[2],112.8 x10_4/uL
same,RBC,[2],593.6 x10_4/ul
same,Ret,[2],10%
same,WBC,[2],63.7 x10_2/uL
same,KIDNEY_L,[2],0.9 g
same,KIDNEY_R,[2],0.9 g
same,KIDNEY_TOTAL,[2],1.8 g
same,LIVER,[2],9 g
same,ALP,[2],1422.6 IU/L
same,ALT,[2],48 IU/L
same,AST,[2],76.6 IU/L
same,CRE,[2],0.1 mg/dL
same,DBIL,[2],0.002 mg/dL
same,GLC,[2],187.4 mg/dL
same,IP,[2],10 mg/dL
same,K,[2],3.9 meq/L
same,LDH,[2],71.2 IU/L
same,Na,[2],145.6 meq/L
same,PL,[2],147.6 mg/dL
same,RALB,[2],2.4 g/dL
same,TBIL,[2],0.044 mg/dL
same,TC,[2],78.6 mg/dL
same,TG,[2],64.6 mg/dL
same,TP,[2],5.3 g/dL
same,gamma-GTP,[2],1.2 IU/L
same,TERMINAL_BW,[3],194.4 g
same,APTT,[3],17.3 s
same,Bas,[3],0.2%
same,Eos,[3],0.8%
same,Fbg,[3],290 mg/dL
same,Hb,[3],12.9 g/dL
same,Ht,[3],40%
same,Lym,[3],74.2%
same,MCH,[3],21.3 pg
same,MCHC,[3],32.4%
same,MCV,[3],66 fL
same,Mono,[3],3%
same,Neu,[3],21%
same,Plat,[3],126.3 x10_4/uL
same,RBC,[3],605.6 x10_4/ul
same,Ret,[3],9.5%
same,WBC,[3],84.5 x10_2/uL
same,KIDNEY_L,[3],0.9 g
same,KIDNEY_R,[3],0.9 g
same,KIDNEY_TOTAL,[3],1.8 g
same,LIVER,[3],7.8 g
same,ALP,[3],1630.2 IU/L
same,ALT,[3],42.2 IU/L
same,AST,[3],83.2 IU/L
same,CRE,[3],0.1 mg/dL
same,DBIL,[3],0 mg/dL
same,GLC,[3],185 mg/dL
same,IP,[3],11.1 mg/dL
same,K,[3],3.7 meq/L
same,LDH,[3],85.2 IU/L
same,Na,[3],146.2 meq/L
same,PL,[3],141.6 mg/dL
same,RALB,[3],2.5 g/dL
same,TBIL,[3],0.054 mg/dL
same,TC,[3],82.6 mg/dL
same,TG,[3],11.2 mg/dL
same,TP,[3],5.4 g/dL
same,gamma-GTP,[3],1.4 IU/L
same,TERMINAL_BW,[4],192.2 g
same,APTT,[4],17.8 s
same,Bas,[4],0%
same,Eos,[4],1%
same,Fbg,[4],275 mg/dL
same,Hb,[4],13.2 g/dL
same,Ht,[4],39.9%
same,Lym,[4],77.6%
same,MCH,[4],21.9 pg
same,MCHC,[4],33%
same,MCV,[4],66.4 fL
same,Mono,[4],2.6%
same,Neu,[4],18.4%
same,Plat,[4],130.9 x10_4/uL
same,RBC,[4],603.6 x10_4/ul
same,Ret,[4],9.4%
same,WBC,[4],76.7 x10_2/uL
same,KIDNEY_L,[4],0.9 g
same,KIDNEY_R,[4],0.9 g
same,KIDNEY_TOTAL,[4],1.7 g
same,LIVER,[4],7.6 g
same,ALP,[4],1517.4 IU/L
same,ALT,[4],38.2 IU/L
same,AST,[4],64.8 IU/L
same,CRE,[4],0.1 mg/dL
same,DBIL,[4],0.002 mg/dL
same,GLC,[4],184 mg/dL
same,IP,[4],10.4 mg/dL
same,K,[4],3.9 meq/L
same,LDH,[4],74.2 IU/L
same,Na,[4],145.2 meq/L
same,PL,[4],142 mg/dL
same,RALB,[4],2.5 g/dL
same,TBIL,[4],0.06 mg/dL
same,TC,[4],79.2 mg/dL
same,TG,[4],12.2 mg/dL
same,TP,[4],5.5 g/dL
same,gamma-GTP,[4],1 IU/L
same,TERMINAL_BW,[5],185.6 g
same,APTT,[5],16.9 s
same,Bas,[5],0%
same,Eos,[5],0.8%
same,Fbg,[5],277.2 mg/dL
same,Hb,[5],14.8 g/dL
same,Ht,[5],43.9%
same,Lym,[5],81.2%
same,MCH,[5],22 pg
same,MCHC,[5],33.8%
same,MCV,[5],65.2 fL
same,Mono,[5],2.2%
same,Neu,[5],15.6%
same,Plat,[5],130.7 x10_4/uL
same,RBC,[5],672.8 x10_4/ul
same,Ret,[5],7.4%
same,WBC,[5],65.5 x10_2/uL
same,KIDNEY_L,[5],0.9 g
same,KIDNEY_R,[5],0.9 g
same,KIDNEY_TOTAL,[5],1.8 g
same,LIVER,[5],7.3 g
same,ALP,[5],1482.6 IU/L
same,ALT,[5],31.8 IU/L
same,AST,[5],59 IU/L
same,CRE,[5],0.2 mg/dL
same,DBIL,[5],0 mg/dL
same,GLC,[5],173.2 mg/dL
same,IP,[5],9.1 mg/dL
same,K,[5],4.1 meq/L
same,LDH,[5],87 IU/L
same,Na,[5],144.6 meq/L
same,PL,[5],131.8 mg/dL
same,RALB,[5],2.6 g/dL
same,TBIL,[5],0.046 mg/dL
same,TC,[5],74.4 mg/dL
same,TG,[5],30.6 mg/dL
same,TP,[5],5.7 g/dL
same,gamma-GTP,[5],1 IU/L
